This note sets out measurements from ChEMBL document CHEMBL1154368, “Benzothiazoles as Rho-associated kinase (ROCK-II) inhibitors” (Bioorg Med Chem Lett, 2009).

SMILES strings stand for the structures.

In series [1] the target is T1, Rho-associated protein kinase 2 (Homo sapiens, UniProt O75116). Description: Inhibition of ROCK2.
Series [2] in a line: Inhibition of PKA.
Series [3] addresses T1, Rho-associated protein kinase 2.
Description: Inhibition of ROCK2 assessed as myosin light chain phosphorylation by cell-based assay
The nature of series [4]: Selectivity for ROCK2 over PKA.
A short description of series [5]: Metabolic stability in human liver microsomes assessed as half life. Format: ADME, Microsome. (Microsomes from liver hold many membrane-bound enzymes, among them those of drug oxidation.)
The nature of series [6]: Metabolic stability in rat liver microsomes assessed as half life. It is filed as ADME, Microsome.
Series [7] concerns the target Serine/threonine-protein kinase MRCK alpha (Homo sapiens, UniProt Q5VT25). Briefly: Inhibition of MRCKalpha.
Series [8] can be described thus: Inhibition of p38.
Series [9] concerns the target Rho-associated protein kinase 1 (Homo sapiens, UniProt Q13464). Briefly: Inhibition of ROCK1.
For series [10], the target named is Mitogen-activated protein kinase 10 (Homo sapiens, UniProt P53779). Briefly: Inhibition of JNK3.
Sequence of Mitogen-activated protein kinase 10 (P53779 whole entry): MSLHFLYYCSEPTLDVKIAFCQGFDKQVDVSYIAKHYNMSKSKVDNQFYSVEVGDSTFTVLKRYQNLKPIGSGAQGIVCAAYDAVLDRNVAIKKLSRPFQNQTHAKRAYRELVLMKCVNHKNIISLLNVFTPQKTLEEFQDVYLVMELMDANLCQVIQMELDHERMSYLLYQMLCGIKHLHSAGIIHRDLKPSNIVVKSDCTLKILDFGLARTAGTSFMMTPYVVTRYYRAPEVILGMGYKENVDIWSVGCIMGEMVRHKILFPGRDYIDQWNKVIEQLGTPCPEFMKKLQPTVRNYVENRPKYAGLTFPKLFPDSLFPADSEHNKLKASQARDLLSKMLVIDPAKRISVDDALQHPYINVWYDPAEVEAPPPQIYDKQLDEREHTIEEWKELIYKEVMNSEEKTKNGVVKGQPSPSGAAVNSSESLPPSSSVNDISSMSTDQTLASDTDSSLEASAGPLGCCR
Series [11] in a line: Clearance in rat. Format: ADME, organism-based. Conditions: in vivo.
A short description of series [12]: Oral bioavailability in rat. Conditions: in vivo. Format: ADME, organism-based.

Sequence of Serine/threonine-protein kinase MRCK alpha (Q5VT25 whole entry): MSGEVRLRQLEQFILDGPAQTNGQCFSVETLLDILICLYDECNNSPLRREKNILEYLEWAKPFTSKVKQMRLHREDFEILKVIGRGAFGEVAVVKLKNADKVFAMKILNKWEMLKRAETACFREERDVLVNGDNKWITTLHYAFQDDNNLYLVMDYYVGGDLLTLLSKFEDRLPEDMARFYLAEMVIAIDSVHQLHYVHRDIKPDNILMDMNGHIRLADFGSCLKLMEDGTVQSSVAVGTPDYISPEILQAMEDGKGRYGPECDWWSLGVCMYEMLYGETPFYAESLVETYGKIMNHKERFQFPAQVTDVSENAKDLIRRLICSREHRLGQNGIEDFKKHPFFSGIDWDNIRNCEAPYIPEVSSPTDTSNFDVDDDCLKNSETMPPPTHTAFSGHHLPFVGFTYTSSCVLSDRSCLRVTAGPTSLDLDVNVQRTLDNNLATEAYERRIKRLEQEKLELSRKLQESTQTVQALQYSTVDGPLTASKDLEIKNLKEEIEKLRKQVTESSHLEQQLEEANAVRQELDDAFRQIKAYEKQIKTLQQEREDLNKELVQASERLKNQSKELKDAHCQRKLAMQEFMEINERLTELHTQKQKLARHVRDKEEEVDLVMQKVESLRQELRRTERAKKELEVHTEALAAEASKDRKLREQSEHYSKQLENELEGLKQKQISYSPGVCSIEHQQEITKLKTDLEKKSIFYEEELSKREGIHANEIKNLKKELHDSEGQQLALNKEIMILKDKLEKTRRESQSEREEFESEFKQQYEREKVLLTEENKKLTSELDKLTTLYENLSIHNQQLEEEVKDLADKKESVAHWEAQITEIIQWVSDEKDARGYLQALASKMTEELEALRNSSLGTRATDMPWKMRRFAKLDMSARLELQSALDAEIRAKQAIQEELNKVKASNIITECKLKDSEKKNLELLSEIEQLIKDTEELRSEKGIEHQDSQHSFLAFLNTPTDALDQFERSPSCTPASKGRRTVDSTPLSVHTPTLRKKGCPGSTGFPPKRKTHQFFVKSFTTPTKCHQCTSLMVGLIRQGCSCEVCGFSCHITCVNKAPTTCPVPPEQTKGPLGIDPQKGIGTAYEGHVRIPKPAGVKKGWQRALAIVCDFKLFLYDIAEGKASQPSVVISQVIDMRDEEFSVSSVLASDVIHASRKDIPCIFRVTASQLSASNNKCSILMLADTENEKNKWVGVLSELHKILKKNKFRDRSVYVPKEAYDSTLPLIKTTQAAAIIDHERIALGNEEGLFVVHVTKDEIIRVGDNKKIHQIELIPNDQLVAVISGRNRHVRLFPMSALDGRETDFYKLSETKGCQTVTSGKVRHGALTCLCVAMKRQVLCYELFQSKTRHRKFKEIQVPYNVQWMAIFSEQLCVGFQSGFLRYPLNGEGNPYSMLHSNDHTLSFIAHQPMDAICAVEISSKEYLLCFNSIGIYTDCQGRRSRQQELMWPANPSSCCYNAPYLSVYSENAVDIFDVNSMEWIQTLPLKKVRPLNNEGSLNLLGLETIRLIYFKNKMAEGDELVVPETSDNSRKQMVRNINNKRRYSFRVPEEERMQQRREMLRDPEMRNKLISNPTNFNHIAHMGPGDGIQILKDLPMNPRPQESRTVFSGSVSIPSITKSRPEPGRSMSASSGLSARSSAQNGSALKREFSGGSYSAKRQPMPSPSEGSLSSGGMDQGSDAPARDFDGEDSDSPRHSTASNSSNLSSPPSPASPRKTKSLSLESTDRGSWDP
Sequence of Rho-associated protein kinase 1 (Q13464 whole entry): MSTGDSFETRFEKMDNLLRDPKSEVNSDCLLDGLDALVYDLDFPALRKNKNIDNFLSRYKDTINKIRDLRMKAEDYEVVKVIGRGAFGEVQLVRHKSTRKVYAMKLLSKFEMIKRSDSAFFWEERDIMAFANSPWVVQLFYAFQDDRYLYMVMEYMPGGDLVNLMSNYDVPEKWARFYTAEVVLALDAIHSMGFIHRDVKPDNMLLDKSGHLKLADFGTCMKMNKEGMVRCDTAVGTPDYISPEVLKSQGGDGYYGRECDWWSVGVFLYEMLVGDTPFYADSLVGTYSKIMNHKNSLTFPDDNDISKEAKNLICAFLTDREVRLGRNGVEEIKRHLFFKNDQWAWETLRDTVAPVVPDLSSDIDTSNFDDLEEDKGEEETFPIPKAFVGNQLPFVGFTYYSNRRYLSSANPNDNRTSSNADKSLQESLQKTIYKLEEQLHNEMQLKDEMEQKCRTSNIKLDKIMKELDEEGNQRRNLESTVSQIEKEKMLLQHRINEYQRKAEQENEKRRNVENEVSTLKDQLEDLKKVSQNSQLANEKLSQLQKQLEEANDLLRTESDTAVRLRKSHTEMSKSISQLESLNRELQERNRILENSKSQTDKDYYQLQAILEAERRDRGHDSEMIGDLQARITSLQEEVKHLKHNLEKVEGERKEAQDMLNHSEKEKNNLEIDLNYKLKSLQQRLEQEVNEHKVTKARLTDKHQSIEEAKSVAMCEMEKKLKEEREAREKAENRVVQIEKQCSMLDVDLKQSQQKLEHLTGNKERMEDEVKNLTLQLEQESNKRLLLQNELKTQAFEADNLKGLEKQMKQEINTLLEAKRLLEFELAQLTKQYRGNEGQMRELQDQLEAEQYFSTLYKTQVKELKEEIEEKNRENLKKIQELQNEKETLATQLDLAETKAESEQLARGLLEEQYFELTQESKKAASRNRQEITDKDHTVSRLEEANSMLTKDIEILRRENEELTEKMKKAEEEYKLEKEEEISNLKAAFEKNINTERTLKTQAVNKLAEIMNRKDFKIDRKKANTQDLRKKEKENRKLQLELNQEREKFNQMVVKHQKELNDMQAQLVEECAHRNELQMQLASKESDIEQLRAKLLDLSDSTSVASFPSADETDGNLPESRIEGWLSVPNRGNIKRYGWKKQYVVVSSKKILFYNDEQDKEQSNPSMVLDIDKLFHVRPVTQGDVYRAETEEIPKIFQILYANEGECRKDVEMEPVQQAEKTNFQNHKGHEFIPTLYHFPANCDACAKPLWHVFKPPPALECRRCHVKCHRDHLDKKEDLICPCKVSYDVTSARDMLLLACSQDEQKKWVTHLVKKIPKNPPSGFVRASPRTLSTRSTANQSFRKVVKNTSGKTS
T1 sequence (O75116 whole entry): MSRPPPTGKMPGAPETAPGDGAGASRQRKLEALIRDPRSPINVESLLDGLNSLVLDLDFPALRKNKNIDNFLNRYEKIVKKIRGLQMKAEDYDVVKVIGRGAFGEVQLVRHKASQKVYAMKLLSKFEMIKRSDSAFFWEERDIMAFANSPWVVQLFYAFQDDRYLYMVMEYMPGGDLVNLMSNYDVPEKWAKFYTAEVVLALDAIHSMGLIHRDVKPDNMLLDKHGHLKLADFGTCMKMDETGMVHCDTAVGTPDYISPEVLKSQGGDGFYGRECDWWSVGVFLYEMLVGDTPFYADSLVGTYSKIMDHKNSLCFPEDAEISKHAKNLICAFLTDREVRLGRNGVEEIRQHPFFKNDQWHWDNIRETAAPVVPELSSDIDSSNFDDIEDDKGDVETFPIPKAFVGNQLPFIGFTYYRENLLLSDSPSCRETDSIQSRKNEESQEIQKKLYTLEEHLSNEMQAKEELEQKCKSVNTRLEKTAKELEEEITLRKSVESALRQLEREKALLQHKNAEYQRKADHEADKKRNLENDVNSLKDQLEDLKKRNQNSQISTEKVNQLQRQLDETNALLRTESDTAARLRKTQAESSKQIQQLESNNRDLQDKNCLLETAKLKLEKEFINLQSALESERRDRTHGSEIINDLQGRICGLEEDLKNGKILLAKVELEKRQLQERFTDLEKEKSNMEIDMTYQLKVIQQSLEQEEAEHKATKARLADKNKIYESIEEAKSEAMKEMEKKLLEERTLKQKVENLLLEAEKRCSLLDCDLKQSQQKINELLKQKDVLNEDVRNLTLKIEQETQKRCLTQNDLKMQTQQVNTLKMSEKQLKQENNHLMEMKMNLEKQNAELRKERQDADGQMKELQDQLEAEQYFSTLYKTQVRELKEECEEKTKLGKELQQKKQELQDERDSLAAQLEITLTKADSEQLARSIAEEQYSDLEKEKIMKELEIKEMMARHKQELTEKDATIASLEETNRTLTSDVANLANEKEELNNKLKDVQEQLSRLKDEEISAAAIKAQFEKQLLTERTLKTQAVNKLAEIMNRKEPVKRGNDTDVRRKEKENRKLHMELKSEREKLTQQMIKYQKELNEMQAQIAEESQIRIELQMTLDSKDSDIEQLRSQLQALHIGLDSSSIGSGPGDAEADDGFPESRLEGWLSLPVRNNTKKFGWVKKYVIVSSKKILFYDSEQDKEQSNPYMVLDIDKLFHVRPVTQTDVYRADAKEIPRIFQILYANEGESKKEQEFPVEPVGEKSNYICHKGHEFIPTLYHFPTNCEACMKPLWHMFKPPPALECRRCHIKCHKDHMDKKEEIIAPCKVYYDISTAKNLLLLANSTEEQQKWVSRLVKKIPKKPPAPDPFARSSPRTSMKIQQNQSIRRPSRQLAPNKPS

As to `Cc1n[nH]cc1-c1ccc2nc(C3COc4ccccc4C3)sc2c1` (centres undefined), the IC50 in series [1] was 25 nM; in series [2] it was 404 nM.

Consider `O=C(NCc1ccccc1)c1nc2ccc(-c3cn[nH]c3)cc2s1`, for which the results for the IC50 in series [1] and in series [2] were 53 nM and 4640 nM, respectively.

In the case of `Cc1cc(-c2ccc3nc(C4COc5ccccc5C4)sc3c2)ccn1` (centres undefined), the IC50 stood at 1200 nM in series [1] and 7990 nM in series [2].

Take `Clc1ccc2c(c1)CC(c1nc3ccc(-c4cn[nH]c4)cc3s1)CO2` (centres undefined): the IC50 in [1] came out at 75 nM; in series [2], 1780 nM.

Consider `CN(C)CCOc1cc(-c2cn[nH]c2)cc2sc(C3COc4ccccc4C3)nc12` (centres undefined), for which the IC50 in [1] was 66 nM; in series [2], greater than 5000 nM; in series [3] it was 365 nM. The Selectivity ratio in series [4] was greater than 75.

As to `COc1cc(-c2cn[nH]c2)cc2sc(C3COc4ccccc4C3)nc12` (centres undefined), the values for the IC50 in series [1], in series [2] and in series [3] were 32 nM, greater than 5000 nM and 1240 nM, respectively.

As to `Fc1ccc2c(c1)CC(c1nc3ccc(-c4cn[nH]c4)cc3s1)CO2` (centres undefined), the IC50 in series [1] was 38 nM; in series [2] it was 1930 nM; in series [3], 1480 nM.

On to `COc1cccc(CN(C)C(=O)c2nc3ccc(-c4cn[nH]c4)cc3s2)c1`, for which the IC50 was 59 nM in series [1] and greater than 20000 nM in series [2].

Take `Nc1nccc(-c2ccc3nc(C4COc5ccccc5C4)sc3c2)n1` (centres undefined): the 50% inhibitory concentration (IC50) in [1] was found to be 9 nM; in [2], 156 nM; in series [3] it was 1500 nM. Moreover, the figures for the half-life in series [5] and in series [6] were 47 min and 23 min, respectively. Besides, in [4], the Selectivity ratio was determined as 17.

Turning to `COc1cccc(CN(C(=O)c2nc3ccc(-c4cn[nH]c4)cc3s2)C2CC2)c1`, the IC50 in [1] is 94 nM; in [2], 19600 nM.

In the case of `c1ccc2c(c1)CC(c1nc3c(OCCC4CCOC4)cc(-c4cn[nH]c4)cc3s1)CO2` (centres undefined), the IC50 in series [1] was 500 nM; in [2] it was greater than 5000 nM.

For the compound `CCN(Cc1cccc(OC)c1)C(=O)c1nc2ccc(-c3cn[nH]c3)cc2s1`, the IC50 in series [7] was 7860 nM; in series [1], 26 nM; in [2], 16300 nM; in [8], greater than 20000 nM; in series [3], 455 nM; in series [9], 180 nM. The same compound came in with an IC50 in series [10] greater than 20000 nM.

For the compound `CN(C)CCCNC(=O)c1ccc2c(c1)CC(c1nc3ccc(-c4cn[nH]c4)cc3s1)CO2` (centres undefined), the IC50 was 9550 nM in series [7]; 0.9 nM in series [1]; 765 nM in [2]; greater than 20000 nM in series [8]; less than 4 nM in series [3]; 2 nM in [9]. In series [10], this compound showed an IC50 of 5460 nM. Also, the half-life in series [5] came out at 34 min. In addition, the Selectivity ratio in series [4] came out at 847.

As to `COc1ccc2c(c1)CC(c1nc3ccc(-c4cn[nH]c4)cc3s1)CO2` (centres undefined), the IC50 is 45 nM in series [1], greater than 20000 nM in series [2] and greater than 2700 nM in series [3].

For the compound `CN(C)CCN(C)c1cc(-c2cn[nH]c2)cc2sc(C3COc4ccccc4C3)nc12` (centres undefined), the IC50 in series [1] came to 51 nM; in [2] it was 702 nM; in series [3], 365 nM. Besides, the Selectivity ratio in [4] was 12.

Take `c1ccc2c(c1)CC(c1nc3ccc(-c4cn[nH]c4)cc3s1)CO2` (centres undefined): the results for the half-maximal inhibitory concentration (IC50) in series [1], in series [2] and in series [3] were 11 nM, 341 nM and 1550 nM, respectively. Besides, the Selectivity ratio in series [4] is 30.

For `CN(C)CCNC(=O)c1ccc2c(c1)CC(c1nc3ccc(-c4cn[nH]c4)cc3s1)CO2` (centres undefined), the IC50 came out at 7 nM in [1], 582 nM in series [2] and 20 nM in series [3]. In addition, the half-life in series [5] worked out at 35 min. Moreover, the Selectivity ratio in series [4] amounted to 83.

As to `c1ccc2c(c1)CC(c1nc3ccc(-c4ccncc4)cc3s1)CO2` (centres undefined), the IC50 in series [1] stood at 42 nM; in [2], 1100 nM. Also, in series [4], the Selectivity ratio came out at 25.

For `Fc1cc2nc(C3COc4ccccc4C3)sc2cc1-c1cn[nH]c1` (centres undefined), the results for the IC50 in series [1], in series [2] and in series [3] were 47 nM, 537 nM and greater than 2700 nM, respectively.

With `COc1cccc(CNC(=O)c2nc3ccc(-c4cn[nH]c4)cc3s2)c1`, the IC50 in [1] is 18 nM; in [2], 5290 nM; in series [3] it was greater than 2700 nM. For the same compound, in series [4], the Selectivity ratio stood at 300.

For `Cc1ccc2c(c1)CC(c1nc3ccc(-c4cn[nH]c4)cc3s1)CO2` (centres undefined), the values for the IC50 in series [1] and in [2] were 93 nM and greater than 20000 nM, respectively.

Regarding `c1ccc2c(c1)CC(c1nc3c(OCCN4CCOCC4)cc(-c4cn[nH]c4)cc3s1)CO2` (centres undefined), the IC50 was 314 nM in series [1] and greater than 5000 nM in series [2].

For the compound `O=C(NCc1cccc(F)c1)c1nc2ccc(-c3cn[nH]c3)cc2s1`, the IC50 in [1] was 72 nM; in series [2], 2680 nM.

Turning to `COC(=O)c1ccc2c(c1)CC(c1nc3ccc(-c4cn[nH]c4)cc3s1)CO2` (centres undefined), the IC50 is 59 nM in [1], greater than 5000 nM in series [2] and 1480 nM in [3].

Turning to `COCCN(Cc1cccc(OC)c1)C(=O)c1nc2ccc(-c3cn[nH]c3)cc2s1`, the results for the IC50 in series [1], in [2] and in [3] were 10 nM, greater than 20000 nM and 871 nM, respectively.

On to `COc1cccc(CN(CCN(C)C)C(=O)c2nc3ccc(-c4cn[nH]c4)cc3s2)c1`, for which the IC50 in series [7] was 247 nM; in [1] it was 0.4 nM; in [2], 45 nM; in series [8], greater than 20000 nM; in series [3], less than 6 nM; in [9] it was 3.5 nM. In series [10], this compound showed an IC50 of 13800 nM. In addition, the clearance in [11] is 50 mL/min/kg. Besides, in series [5], the half-life worked out at 15 min. Moreover, the Selectivity ratio in [4] was greater than 100. Moreover, the bioavailability in series [12] worked out at 0%.

For the compound `Fc1cc(-c2cn[nH]c2)cc2sc(C3COc4ccccc4C3)nc12` (centres undefined), the 50% inhibitory concentration (IC50) in series [1] is 14 nM; in [2], 644 nM; in [3], greater than 2700 nM. Further, the Selectivity ratio in series [4] was found to be 43.

As a reminder, the IC50 is the concentration that gives 50% inhibition. A word on the half-life: it is the time needed for the level to fall by half in the phase considered. A word on the clearance: it is the rate of elimination divided by the concentration. The low end stands for a low capacity for elimination, the high end for a high capacity for elimination. Usually bioavailability stands for dose-corrected exposure relative to a reference, in per cent. Low readings indicate little systemic uptake, high ones much systemic uptake.
